This is an account of results in US7691860B2, “Sulfonamide derivatives” (Banyu Pharmaceutical Co., Ltd., priority 2004, dated 2010).

The target in this assay is T1, human NPY Y5 receptor (Homo sapiens, UniProt Q15761).
T1 construct: expressed in transfected cells; host or cells: COS-7, CHO and LM(tk-)
T1 sequence (Q15761 1-445): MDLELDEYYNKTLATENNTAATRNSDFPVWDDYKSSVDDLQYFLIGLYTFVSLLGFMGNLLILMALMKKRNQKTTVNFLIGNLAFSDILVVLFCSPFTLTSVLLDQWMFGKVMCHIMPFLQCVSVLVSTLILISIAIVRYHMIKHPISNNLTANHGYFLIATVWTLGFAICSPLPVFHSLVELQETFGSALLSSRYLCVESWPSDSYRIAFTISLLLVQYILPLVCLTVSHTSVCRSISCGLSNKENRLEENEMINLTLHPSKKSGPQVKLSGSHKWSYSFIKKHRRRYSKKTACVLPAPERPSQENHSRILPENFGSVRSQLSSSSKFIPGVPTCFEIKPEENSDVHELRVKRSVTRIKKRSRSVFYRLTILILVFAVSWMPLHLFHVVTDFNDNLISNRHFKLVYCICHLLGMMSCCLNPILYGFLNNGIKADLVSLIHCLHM
The assay is described as follows: NPY binding inhibition test ([125I]peptide YY binding to membranes of NPY Y5 receptor expressing cells). The conditions noted are these: membrane sample of NPY Y5 receptor expressed cells, 25° C., 2 hours, read-out: IC50 against specific peptide YY binding. The text has this:
The cDNA sequence (refer to the specification of WO 96/16542) encoding human NPY Y5 receptor was cloned into the expression vectors, pcDNA3, pRc/RSV (supplied by Invitrogen Co.) and pCI-neo (supplied by Promega Co.). The resultant expression vectors were transfected into the host cells, COS-7, CHO and LM(tk−) (American Type Culture Collection) using the cationic lipid method (refer to Proceedings of the National Academy of Sciences of the United States of America, vol. 84, pp. 7413 (1987)) to give NPY Y5 receptor expression cells. A membrane sample prepared from the NPY Y5 receptor expressed cells was incubated together with a test compound and 20,000 cpm of [^125I]peptide YY (supplied by NEN Co.) in an assay buffer (25 mM Tris buffer, pH 7.4, containing 10 mM of magnesium chloride, 1 mM of phenylmethylsulfonyl fluoride, 0.1% bacitracin and 0.5% bovine serum albumin) at 25° C. for 2 hours, followed by filtration through glassfilter GF/C. After washing with 5 mM Tris buffer (pH7.4) containing 0.3% BSA, radioactivity of the cake on the filter was measured. Non-specific binding was measured in the presence of 1 μM of peptide YY, and a 50% Inhibition Concentration (IC50 value) of the test compound against specific peptide YY binding was determined (refer to Endocrinology, vol. 131, pp. 2090 (1992)).
As for `CC(C)(C)S(=O)(=O)N[C@H]1CC[C@H](c2nc3nc(-c4ccccc4F)ccc3[nH]2)CC1` [Example 4, 2-(trans-4-tert-butylsulfonylamino-cyclohexyl)-5-(2-fluorophenyl)imidazo[4,5-b]pyridine], the concentration for half-maximal inhibition (IC50) is 1.4 nM.

As for `CC(C)(C)S(=O)(=O)N[C@H]1CC[C@H](c2nc3nc(-c4ccccc4)ncc3[nH]2)CC1` [Example 9, 8-(trans-4-tert-butylsulfonylamino-cyclohexyl)-2-phenylpurine], the IC50 is 1.6 nM. The figure for `CC(C)(C)S(=O)(=O)N[C@H]1CC[C@H](c2nc3ccc(-c4ccccc4)cc3[nH]2)CC1` [Example 3, 2-(trans-4-tert-butylsulfonylamino-cyclohexyl)-5-phenylbenzimidazole] is 0.67 nM; for `CC(C)(C)S(=O)(=O)N[C@H]1CC[C@H](c2nc3nc(-c4ccc(F)cc4)ncc3[nH]2)CC1` [Example 7, 8-(trans-4-tert-butylsulfonylamino-cyclohexyl)-2-(4-fluorophenyl)purine] it is 1.2 nM; for `CC(C)(C)S(=O)(=O)NC1CCN(c2nc3ccc(-c4ccccc4)cc3[nH]2)CC1` [Example 17, 2-(4-tert-butylsulfonylaminopiperidin-1-yl)-5-phenylbenzimidazole] it is 1.5 nM.

For the compound `CS(=O)(=O)Nc1ccccc1N1CCN(c2nc3nc(-c4ccccc4)ncc3[nH]2)CC1` [Example 22, 8-{1-(2-methylsulfonylaminophenyl)piperazin-4-yl}-2-phenylpurine], the concentration for half-maximal inhibition (IC50) was 1.7 nM.

The IC50 is the concentration needed to halve the response being measured.
